From EP1144402B1, “SUBSTITUTED OXIMES AND HYDRAZONES AS NEUROKININ ANTAGONISTS” (SCHERING CORPORATION, priority 1998, dated 2000)

Tests used:
[1] = target: T1, NK2 receptor (Homo sapiens, UniProt P21452); assay: neurokinin receptor binding assay (NK2)
T1 sequence (P21452 1-398): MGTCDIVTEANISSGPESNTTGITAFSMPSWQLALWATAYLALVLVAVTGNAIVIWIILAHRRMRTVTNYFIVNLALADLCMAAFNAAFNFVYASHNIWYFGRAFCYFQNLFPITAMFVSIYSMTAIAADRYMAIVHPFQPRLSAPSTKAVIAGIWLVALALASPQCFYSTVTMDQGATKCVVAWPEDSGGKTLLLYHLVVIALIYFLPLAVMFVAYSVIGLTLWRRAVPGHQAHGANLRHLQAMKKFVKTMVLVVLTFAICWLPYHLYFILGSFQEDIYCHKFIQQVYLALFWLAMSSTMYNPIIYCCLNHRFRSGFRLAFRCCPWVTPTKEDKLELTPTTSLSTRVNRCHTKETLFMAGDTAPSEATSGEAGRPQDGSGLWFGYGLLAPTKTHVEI
From the text: (§1) The in vitro and in vivo activity of the compounds of formula I can be determined by various procedures known in the art, such as a test for their ability to inhibit the activity of the NK1 agonist Substance P, an isolated hamster trachea NK2 assay, a test of the effect of NK1 antagonists on Substance P-induced airway microvascular leakage, measurement of NK2 activity in vivo in guinea pigs, measurement of bronchoconstriction due to NKA, and neurokinin receptor binding assay(s). NK3 activity is determined by following a procedure similar to that described in the literature, e.g., Molecular Pharmacol., 48 (1995), p. 711-716. Typical procedures for determining NK1 and NK2 activity are described in U.S. 5,696,267, incorporated herein by reference.
(§2) % Inhibition of neurokinin agonist activity is the difference between the percent of maximum specific binding (MSB) and 100%. The percent of MSB is defined by the following equation, wherein "dpm" is disintegrations per minute: % MSB =((dpm of unknown) - (dpm of nonspecific binding))/((dpm of total binding) - (dpm of nonspecific binding))X 100 [formula]
Using the test procedures known in the art, the following data (% inhibition or Ki) were obtained for preferred and/or representative compounds of formula I: […]

[2] = target: NK1 receptor (Homo sapiens, UniProt P25103); assay: neurokinin receptor binding assay (NK1)
Chain of NK1 receptor (P25103 whole entry, species assumed): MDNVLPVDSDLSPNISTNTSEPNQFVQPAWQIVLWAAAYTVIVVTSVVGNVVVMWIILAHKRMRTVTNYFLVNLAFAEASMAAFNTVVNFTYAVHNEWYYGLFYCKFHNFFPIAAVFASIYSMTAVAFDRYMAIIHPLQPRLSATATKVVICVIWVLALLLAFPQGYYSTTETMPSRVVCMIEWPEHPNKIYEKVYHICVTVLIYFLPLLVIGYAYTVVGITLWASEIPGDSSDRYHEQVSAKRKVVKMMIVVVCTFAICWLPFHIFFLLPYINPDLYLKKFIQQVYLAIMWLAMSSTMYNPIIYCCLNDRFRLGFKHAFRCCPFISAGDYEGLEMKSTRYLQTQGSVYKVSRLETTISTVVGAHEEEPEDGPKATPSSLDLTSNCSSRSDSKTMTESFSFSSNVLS
From the text: as §1, with “711-716.” for “711-716. Typical procedures for determining NK1 and NK2 activity are described in U.S. 5,696,267, incorporated herein by reference.”
as §2

Structure (SMILES): CO/N=C(\CN(C)C(=O)c1cc(Cl)cc(Cl)c1)[C@H](CCN1CCC(N2CCCN(CC(C)(C)O)C2=O)CC1)c1ccc(Cl)c(Cl)c1 [Example 6K]
- Ki [1]: 0.8 nM

Structure (SMILES): CO/N=C(\CN(C)C(=O)c1cc(Cl)cc(Cl)c1)[C@H](CCN1CCC(N2CCCN(Cc3nn[nH]n3)C2=O)CC1)c1ccc(Cl)c(Cl)c1 [Example 6S]
- Ki [2]: 1 nM
- Ki [1]: 0.9 nM

Structure (SMILES): CO/N=C(\CN(C)C(=O)c1cc(Cl)cc(Cl)c1)[C@H](CCN1CCC(n2c(=O)[nH]c3ccccc32)CC1)c1ccc(Cl)c(Cl)c1 [Example 18A]
- Ki [2]: 1.2 nM
- Ki [1]: 1 nM
